Assays:
[1] = tested on: A-549 (epithelial cancer cell line); assay: Antiproliferative assay, A-549; assay type: cell-based; conditions: Homo sapiens, A549; read-out: Antiproliferative activity IC50 ± SEM, A-549
Excerpt: (§1) See Supplementary Appendix S1A.
(§2) DMSO (0.1%) was used as control.

[2] = tested on: four cancer cell lines (A-549, MCF-7, Panc-1, HT-29); assay: Antiproliferative assay, average over the four cancer cell lines (GI50); conditions: read-out: Antiproliferative activity IC50, Average (mean GI50)
Protocol: (§4) The IC50 of each compound was calculated using doxorubicin as the reference.
(§5) To explore the antiproliferative potential of compounds MTT assay was performed according to previously reported procedure using different cell lines to explore the antiproliferative potential of compounds propidium iodide fluorescence assay was performed using different cell lines. To calculate the total nuclear DNA, a fluorescent dye (propidium iodide, PI) is used which can attach to the DNA, thus offering a quick and precise technique. PI cannot pass through the cell membrane and its signal intensity can be considered as directly proportional to quantity of cellular DNA. Cells whose cell membranes are damaged or have changed permeability are counted as dead ones. The assay was performed by seeding the cells of different cell lines at a density of 3000-7500 cells/well (in 200µl medium) in culture plates followed by incubation for 24h at 37 °C in humidified 5% CO2/95% air atmospheric conditions. The medium was removed; the compounds were added to the plates at 10 µM concentrations (in 0.1% DMSO) in triplicates, followed by incubation for 48 h. DMSO (0.1%) was used as control. After incubation, medium was removed followed by the addition of PI (25 µl, 50µg/mL in water/medium) to each well of the plates. At -80 °C, the plates were allowed to freeze for 24 h, followed by thawing at 25 °C. A fluorometer (Polar-Star BMG Tech) was used to record the readings at excitation and emission wavelengths of 530 and 620 nm for each well. The percentage cytotoxicity of compounds was calculated using the following formula:

[3] = tested on: Panc-1 (pancreas cancer cell line); assay: Antiproliferative assay, Panc-1; assay type: cell-based; conditions: Homo sapiens, read-out: Antiproliferative activity IC50 ± SEM, Panc-1
Excerpt: as §1, §2

[4] = tested on: HT-29 (colon cancer cell line); assay: Antiproliferative assay, HT-29; conditions: Homo sapiens, HT-29, read-out: Antiproliferative activity IC50 ± SEM, HT-29
Protocol: as §4, §5

[5] = tested on: MCF-7 (breast cancer cell line); assay: Antiproliferative assay, MCF-7; assay type: cell-based; conditions: Homo sapiens, MCF7; read-out: Antiproliferative activity IC50 ± SEM, MCF-7
Excerpt: as §1, §2

[6] = Cell viability assay (MTT) on normal cell line; assay type: cell-based; conditions: human, MCF-10A mammary epithelial cells, 50 µM of compound;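 further: values are percent cell viability not percent inhibition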
Protocol: To study the effect of 4a-l and 5a-c on normal cell lines, a cell viability assay was done using the MCF-10A (human mammary gland epithelial) cell line ([Abdelbaset et al., 2019]; [Al-Wahaibi et al., 2020]). This study uses a concentration of 50 µM of the investigated compound for 4 days, after which cell viability is evaluated.
To study the effect of 4a-l and 5a-c on normal cell lines, a cell viability assay was done using the MCF-10A (human mammary gland epithelial) cell line ([Abdelbaset et al., 2019]; [Al-Wahaibi et al., 2020]). See Supplementary Appendix S1A.
MTT assay was carried out to study the effect of compounds on mammary epithelial cells (MCF-10A). The medium in which cells were propagated contained Dulbecco's modified Eagle's medium (DMEM)/ Ham's F-12 medium (1:1) supplemented with epidermal growth factor (20 ng/mL), hydrocortisone (500 ng/mL), insulin (10 μg/mL), 2 mM glutamine and 10% fetal calf serum. After every 2-3 days, the cells were passaged using trypsin ethylenediamine tetra acetic acid (EDTA). The cells were seeded at a density of 10^4 cells mL^-1 in flat-bottomed culture plates containing 96 wells each. After 24 h, medium was removed from the plates and the compounds in (in 0.1% DMSO) were added (in 200 μL medium to yield a final concentration of 0.1% v/v) to the wells of plates. A single compound was designated with four wells followed by incubation of plates for 96h at 37°C. After incubation, medium was removed completely from the plates followed by addition of MTT (0.4 mg/mL in medium) to each well and subsequent incubation of plates for 3h. MTT (along with the medium) was removed and DMSO (150μL) was added to each well of the culture plates, followed by vortexing and subsequent measurement of absorbance (at 540 nm) using microplate reader. The data are shown as percentage inhibition of proliferation in comparison with controls containing 0.1% DMSO.

topo IIα = molecular target: T1, topo IIα (Homo sapiens, UniProt P11388); assay: Topo IIα inhibitory assay (pBR322 relaxation); assay type: biochemical
T1 construct: purchased USB Corp., USA
Protocol: (§3) All the tested compounds were dissolved in DMSO and the DNA topoisomerase I and II inhibitory activity of each compound was measured as follows according to previously reported methods. Mixture comprising of 100 ng supercoiled pBR322 plasmid DNA (Thermo Scientific, USA) and 0.2 ~ 1 unit of recombinant human DNA topo I (Topo GEN INC., USA) or topo IIα (USB Corp., USA) was incubated with or without the prepared compounds in the assay buffer (For topo I, 10 mM Tris-HCl (pH 7.9), 150 mM NaCl and 0.1% BSA, 0.1 mM spermidine and 5% glycerol; for topo II, 10 mM Tris-HCl (pH 7.9), 50 mM NaCl, 50 mM KCl, 5 mM MgCl2, 1 mM EDTA, 1 mM ATP and […] BSA) for 30 min at 37 ◦C. The reaction with final volume of 10 μL was stopped by adding the topo stop buffer (For topo I, 10% SDS solution containing 0.2% bromophenol blue, 0.2% xylene cyanol and 30% glycerol; for topo II, 7 mM EDTA). The reaction products were electrophoresed on 0.8% agarose gel at 50 V for 1 h with TAE electrophoresis buffer. The gels were stained in an EtBr solution (0.5 mg/mL) and visualized by transillumination with UV light and were quantitated using Alpha Tech ImagerTM (Alpha Innotech Corp., USA).

[7] = molecular target: T2, recombinant human DNA topo I (Homo sapiens, UniProt P11387); assay: Topo I inhibitory assay (pBR322 relaxation); assay type: biochemical
T2 construct: purchased Topo GEN INC., USA
T2 sequence (P11387 1-765): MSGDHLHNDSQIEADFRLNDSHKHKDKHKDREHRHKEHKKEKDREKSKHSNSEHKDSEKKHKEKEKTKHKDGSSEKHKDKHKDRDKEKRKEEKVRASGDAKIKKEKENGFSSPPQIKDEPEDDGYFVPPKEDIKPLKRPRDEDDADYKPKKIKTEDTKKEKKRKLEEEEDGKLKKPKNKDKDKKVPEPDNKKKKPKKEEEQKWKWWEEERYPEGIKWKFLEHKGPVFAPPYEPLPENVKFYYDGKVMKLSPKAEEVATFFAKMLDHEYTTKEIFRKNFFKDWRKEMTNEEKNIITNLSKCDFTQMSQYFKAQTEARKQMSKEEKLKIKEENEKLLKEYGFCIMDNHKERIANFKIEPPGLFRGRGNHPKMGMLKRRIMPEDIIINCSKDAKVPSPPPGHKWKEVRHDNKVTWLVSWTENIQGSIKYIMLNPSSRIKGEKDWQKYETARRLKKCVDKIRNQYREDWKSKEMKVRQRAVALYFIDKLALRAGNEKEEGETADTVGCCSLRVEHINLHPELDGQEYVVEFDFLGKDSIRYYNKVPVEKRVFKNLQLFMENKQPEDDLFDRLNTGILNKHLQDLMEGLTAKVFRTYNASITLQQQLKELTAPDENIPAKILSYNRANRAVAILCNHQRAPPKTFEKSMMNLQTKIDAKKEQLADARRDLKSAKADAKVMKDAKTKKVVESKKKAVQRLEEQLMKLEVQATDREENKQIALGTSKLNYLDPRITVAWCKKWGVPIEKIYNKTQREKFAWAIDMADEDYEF
Protocol: as §3

T1 sequence (P11388 whole entry): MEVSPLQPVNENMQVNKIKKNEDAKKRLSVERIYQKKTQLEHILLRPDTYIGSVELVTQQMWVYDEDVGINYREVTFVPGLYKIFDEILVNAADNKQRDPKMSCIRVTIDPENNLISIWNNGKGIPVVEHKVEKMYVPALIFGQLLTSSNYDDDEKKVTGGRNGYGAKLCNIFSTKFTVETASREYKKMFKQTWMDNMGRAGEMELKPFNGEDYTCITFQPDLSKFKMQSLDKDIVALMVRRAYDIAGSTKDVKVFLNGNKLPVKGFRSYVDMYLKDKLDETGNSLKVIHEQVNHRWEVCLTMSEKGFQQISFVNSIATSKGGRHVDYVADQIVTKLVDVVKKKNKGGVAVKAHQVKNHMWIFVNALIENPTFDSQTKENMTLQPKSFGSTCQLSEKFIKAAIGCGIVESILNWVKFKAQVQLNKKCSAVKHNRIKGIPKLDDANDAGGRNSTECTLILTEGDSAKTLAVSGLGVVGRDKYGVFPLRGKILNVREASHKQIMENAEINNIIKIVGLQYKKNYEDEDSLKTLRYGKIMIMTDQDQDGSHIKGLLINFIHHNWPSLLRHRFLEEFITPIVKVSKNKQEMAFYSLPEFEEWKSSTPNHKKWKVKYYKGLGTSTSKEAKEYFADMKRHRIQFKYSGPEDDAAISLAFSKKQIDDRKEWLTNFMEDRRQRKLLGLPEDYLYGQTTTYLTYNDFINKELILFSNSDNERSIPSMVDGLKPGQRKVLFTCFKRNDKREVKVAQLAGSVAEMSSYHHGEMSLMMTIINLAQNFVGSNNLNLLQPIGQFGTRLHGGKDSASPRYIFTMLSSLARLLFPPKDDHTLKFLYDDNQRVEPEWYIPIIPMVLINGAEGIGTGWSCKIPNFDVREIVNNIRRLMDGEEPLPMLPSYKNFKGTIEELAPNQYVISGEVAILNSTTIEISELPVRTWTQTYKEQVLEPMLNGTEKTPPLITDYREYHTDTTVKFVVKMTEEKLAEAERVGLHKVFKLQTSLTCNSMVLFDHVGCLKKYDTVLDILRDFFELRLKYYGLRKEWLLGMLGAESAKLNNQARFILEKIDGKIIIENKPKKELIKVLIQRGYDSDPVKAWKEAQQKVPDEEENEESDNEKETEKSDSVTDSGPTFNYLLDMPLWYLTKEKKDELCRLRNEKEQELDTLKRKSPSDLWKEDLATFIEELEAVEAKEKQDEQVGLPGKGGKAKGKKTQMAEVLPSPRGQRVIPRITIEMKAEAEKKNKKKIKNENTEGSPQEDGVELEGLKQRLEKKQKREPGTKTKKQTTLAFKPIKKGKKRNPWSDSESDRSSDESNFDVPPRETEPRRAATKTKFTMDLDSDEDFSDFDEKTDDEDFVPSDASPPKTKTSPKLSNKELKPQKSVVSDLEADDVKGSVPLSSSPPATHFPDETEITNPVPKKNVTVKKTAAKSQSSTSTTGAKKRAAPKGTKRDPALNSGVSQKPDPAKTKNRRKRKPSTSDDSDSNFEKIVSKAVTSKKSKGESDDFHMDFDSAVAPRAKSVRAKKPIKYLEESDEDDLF

Row | melting point [°C] | IC50 [1] [nM] | IC50 [2] [nM] | IC50 [3] [nM] | IC50 [4] [nM] | IC50 [5] [nM] | inhibition at 20 µM (topo IIα) [%] | inhibition at 100 µM (topo IIα) [%] | inhibition at 20 µM [7] [%] | inhibition at 100 µM [7] [%] | SMILES | viability at 4 days, 50 µM [6] [%]
1 | 247 | 1100 ± 200 | 1300 | 1600 ± 200 | 1200 ± 200 | 1400 ± 200 | 23.1 | 56.7 | 37.2 | 74.9 | COc1ccc2[nH]c(=O)cc(/N=C(\C3CCCC3)N3CCOCC3)c2c1 [Compound 4i, (E) 4-((Cyclopentyl(morpholino)methylene)amino)-6-methoxyquinolin-2(1H)-one] | 89
2 | 248 | 1500 ± 100 | 1350 | 1300 ± 100 | 1400 ± 100 | 1200 ± 100 | 21.7 | 54.2 | 34.7 | 71.6 | O=c1cc(/N=C(\C2CCCC2)N2CCCCC2)c2cc(Cl)ccc2[nH]1 [Compound 4d, (E) 4-((Cyclopentyl(piperidin-1-yl)methylene)amino)-6-chloroquinolin-2(1H)-one] | 92
3 | 222 | 1500 ± 100 | 1500 | 1500 ± 100 | 1600 ± 100 | 1400 ± 100 | 22.3 | 57.2 | 29.6 | 65.9 | Cc1ccc2[nH]c(=O)cc(/N=C(\C3CCCC3)N3CCCCC3)c2c1 [Compound 4b, (E) 4-((Cyclopentyl(piperidin-1-yl)methylene)amino)-6-methylquinolin-2(1H)-one] | 92
4 | 342 | 1100 ± 100 | 1000 | 900 ± 100 | 1100 ± 100 | 800 ± 100 | – | 23.8 | 46.7 | 84.8 | Cn1c(=O)cc(/N=C(\C2CCCC2)N2CCN(/C(=N/c3cc(=O)n(C)c4ccccc34)C3CCCC3)CC2)c2ccccc21 [Compound 5c, 4,4'-((1E,1′E)-(piperazine-1,4-diylbis(cyclopentylmethanylylidene))bis(azanylylid-ene))bis(1-methylquinolin-2(1H)-one)] | 89

From article PMC9716094, “Synthesis of novel amidines via one-pot three component reactions: Selective topoisomerase I inhibitors with antiproliferative properties” (Frontiers in Chemistry, 2022)
